Source: US20060058325A1, “Therapeutic quniazoline derivatives” (AstraZeneca AB, priority 2002, published 2006)

Experiments:
Aurora-A = target: T1, Aurora-A (Homo sapiens, UniProt O14965); assay: In vitro Aurora-A kinase inhibition test; assay type: biochemical
T1 construct: made in house; host or cells: Spodoptera frugiperda Sf21 insect cells (baculovirus)
T1 sequence (O14965 1-403): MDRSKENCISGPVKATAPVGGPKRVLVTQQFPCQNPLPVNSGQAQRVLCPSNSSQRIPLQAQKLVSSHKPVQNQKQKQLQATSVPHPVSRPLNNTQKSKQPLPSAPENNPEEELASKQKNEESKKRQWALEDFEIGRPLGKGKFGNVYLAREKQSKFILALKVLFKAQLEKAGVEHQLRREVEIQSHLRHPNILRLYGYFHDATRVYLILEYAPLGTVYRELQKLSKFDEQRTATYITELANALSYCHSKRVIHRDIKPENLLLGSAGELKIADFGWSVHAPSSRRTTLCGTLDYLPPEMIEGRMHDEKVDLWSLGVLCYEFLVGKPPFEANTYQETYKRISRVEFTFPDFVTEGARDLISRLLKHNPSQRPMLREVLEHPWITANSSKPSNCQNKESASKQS

Aurora-B = target: T2, Aurora-B (Homo sapiens, UniProt Q96GD4); assay: In vitro Aurora-B kinase inhibition test; assay type: biochemical; details: recombinant Aurora-B, 33P-ATP peptide substrate, 60 minutes room temperature; read-out: concentration giving 50% inhibition of enzyme activity
T2 construct: 6-histidine; made in house; host or cells: Spodoptera frugiperda Sf21 insect cells (baculovirus)
Excerpt: (b) In Vitro Aurora-B Kinase Inhibition Test
This assay determines the ability of a test compound to inhibit serine-threonine kinase activity. DNA encoding Aurora-B may be obtained by total gene synthesis or by cloning. This DNA may then be expressed in a suitable expression system to obtain polypeptide with serine-threonine kinase activity. In the case of Aurora-B, the coding sequence was isolated from cDNA by polymerase chain reaction (PCR) and cloned into the pFastBac system in a manner similar to that described above for Aurora-A (i.e. to direct expression of a 6-histidine tagged Aurora-B protein).
For the large scale expression of Aurora-B kinase activity, Sf21 insect cells were grown at 28° C. in TC100 medium supplemented with 10% foetal calf serum (Viralex) and 0.2% F68 Pluronic (Sigma) on a Wheaton roller rig at 3 r.p.m. When the cell density reached 1.2×10^6 cells ml^−1 they were infected with plaque-pure Aurora-B recombinant virus at a multiplicity of infection of 1 and harvested 48 hours later. All subsequent purification steps were performed at 4° C. […]

SW620 cells [1] = assay: In vitro cell proliferation assay (BrdU incorporation); assay type: cell-based; details: Homo sapiens, SW-620, 48 hours with compound, 2 hour BrdU labelling, read-out: concentration active in test (50% inhibition of BrdU incorporation)
Excerpt: (c) In Vitro Cell Proliferation Assay
This and other assays can be used to determine the ability of a test compound to inhibit the growth of adherent mammalian cell lines, for example the human tumour cell line SW620 (ATCC CCL-227). This assay determines the ability of at test compound to inhibit the incorporation of the thymidine analogue, 5′-bromo-2′-deoxy-uridine (BrdlD into cellular DNA. SW620 or other adherent cells were typically seeded at 1×10^5 cells per well in L-15 media (GIBCO) plus 5% foetal calf serum, 1% L-glutamine (100 μl /well) in 96 well tissue culture treated 96 well plates (Costar) and allowed to adhere overnight. The following day the cells were dosed with compound (diluted from 10 mM stock in DMSO using L-15 (with 5% FCS, 1% L-glutamine). Untreated control wells and wells containing a compound known to give 100% inhibition of BrdU incorporation were included on each plate. After 48 hours in the presence/absence of test compound the ability of the cells to incorporate BrdU over a 2 hour labelling period was determined using a Boelringer (Roche) Cell Proliferation BrdU ELISA kit (cat. No. 1 647 229) according to manufacturers directions. […] The optical density of the wells was then determined at 690 nm wavelength using a Titertek Multiscan plate reader. […]

SW620 cells [2] = assay: In vitro cell cycle analysis assay (FACS DNA content); assay type: cell-based, human; details: 24 hours with compound
Procedure: (d) In Vitro Cell Cycle Analysis Assay
This assay determines the ability of a test compound to arrest cells in specific phases of the cell cycle. Many different mammalian cell lines could be used in this assay and SW620 cells are included here as an example. SW620 cells were seeded at 7×10^5 cells per T25 flask (Costar) in 5 ml L-15 (5% FCS, 1% L-glutamine). Flasks were then incubated overnight in a humidified 37° C. incubator with 5% CO2. The following day, 5 μl of L-15 (5% FCS, 1% L-glutamine) carrying the appropriate concentration of test compound solubilised in DMSO was added to the flask. A no compound control treatments was also included (0.5% DMSO). The cells were then incubated for a defined time (24 hours) with compound. […]
Each sample was then syringed 10 times using 21-guage needle. The samples were then transferred to LPS tubes and DNA content per cell analysed by Fluorescence activated cell sorting (FACS) using a FACScan flow cytometer (Becton Dickinson). Typically 30,000 events were counted and recorded using CellQuest v1.1 software (Verity Software). Cell cycle distribution of the population was calculated using Modfit software (Verity Software) and expressed as percentage of cells with 2N (G0/G1), 2N-4N (S phase) and with 4N (G2/M) DNA content. […]

T2 sequence (Q96GD4 whole entry): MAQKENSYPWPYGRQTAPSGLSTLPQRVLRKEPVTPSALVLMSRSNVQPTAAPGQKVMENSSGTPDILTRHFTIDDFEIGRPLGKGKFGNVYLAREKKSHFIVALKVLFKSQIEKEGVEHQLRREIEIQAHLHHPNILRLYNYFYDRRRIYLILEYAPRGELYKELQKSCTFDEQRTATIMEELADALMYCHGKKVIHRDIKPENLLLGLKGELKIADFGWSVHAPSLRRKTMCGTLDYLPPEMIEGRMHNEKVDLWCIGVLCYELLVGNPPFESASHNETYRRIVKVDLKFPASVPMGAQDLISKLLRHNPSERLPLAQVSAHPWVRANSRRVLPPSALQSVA

CCN(CCCOc1cc2ncnc(Nc3cnc(NC(=O)c4ccc(F)c(Cl)c4)nc3)c2cc1OC)CCOP(=O)(O)O [Compound 24, 2-[(3-{[4-({2-[(3-chloro-4-fluorobenzoyl)amino]pyrimidin-5-yl}amino)-6-methoxyquinazolin-7-yl]oxy}propyl)(ethyl)amino]ethyl dihydrogen phosphate]
IC50 (Aurora-A): 0.0003 µM | IC50 (Aurora-B): 0.0123 µM | IC50 (SW620 cells [1]): 0.3 µM | concentration active in cell cycle analysis test (SW620 cells [2]): 1.5 µM
